Results: US10479795B2 (Incyte Corporation, priority 2016, dated 2019)
Structures can show the parent of a compound that is named as a salt.

Columns and labels:
[1] = target: PI3Kδ (p110δ/p85α) Recombinant Human Protein (Homo sapiens (Human), UniProt O00329); test: PI3Kδ Scintillation Proximity Assay; type: biochemical
Description: Example C. PI3Kδ Scintillation Proximity Assay
[γ-^33P]ATP (10 mCi/mL) and Wheat Germ Agglutinin (WGA) YSi SPA Scintillation Beads was purchased from Perkin-Elmer (Waltham, Mass.). Lipid kinase substrate, D-myo-Phosphatidylinositol 4,5-bisphosphate (PtdIns(4,5)P2)D (+)-sn-1,2-di-O-octanoylglyceryl, 3-O-phospho linked (PIP2), CAS 204858-53-7, was purchased from Echelon Biosciences (Salt Lake City, Utah). PI3Kδ (p110δ/p85α) Recombinant Human Protein was purchased from Eurofins (St Charles, Mo.). ATP, MgCl2, DTT, EDTA, MOPS and CHAPS were purchased from Sigma-Aldrich (St. Louis, Mo.).
(§1) The kinase reaction was conducted in polystyrene 384-well Greiner Bio-one white plate from Thermo Fisher Scientific in a final volume of 25 μL. Inhibitors were first diluted serially in DMSO and added to the plate wells before the addition of other reaction components. The final concentration of DMSO in the assay was 2%. The PI3Kδ assay was carried out at room temperature in 20 mM MOPS, pH 6.7, 10 mM MgCl2, 5 mM DTT and CHAPS 0.03%. Reactions were initiated by the addition of ATP, the final reaction mixture consisted of 20 μM PIP2, 2 μM ATP, 0.5 μCi [γ-^33P] ATP, 3.4 nM PI3Kδ. Reactions were incubated for 120 min and terminated by the addition of 40 μL SPA beads suspended in quench buffer: 163 mM potassium phosphate pH 7.8, 20% glycerol, 25 mM EDTA. The final concentration of SPA beads is 1.0 mg/mL. After the plate sealing, plates were shaken overnight at room temperature and centrifuged at 1500 rpm for 10 min, the radioactivity of the product was determined by scintillation counting on Topcount (Perkin-Elmer). IC50 determination was performed by fitting the curve of percent of the solvent control activity versus the log of the inhibitor concentration using the GraphPad Prism 6.0 software.

[2] = target: PI3Kγ (p110γ) Recombinant Human Protein (Homo sapiens (Human), UniProt P48736); test: PI3K-γ Scintillation Proximity Assay; type: biochemical; settings: read-out: PI3Kγ IC50
Experimental: [γ-^33P]ATP (10 mCi/mL) and Wheat Germ Agglutinin (WGA) YSi SPA Scintillation Beads was purchased from Perkin-Elmer (Waltham, Mass.). […] PI3Kγ (p110γ) Recombinant Human Protein was purchased from Life technology (Grand Island, N.Y.). ATP, MgCl2, DTT, EDTA, MOPS and CHAPS were purchased from Sigma-Aldrich (St. Louis, Mo.).
as §1, with “PI3Kγ” for “PI3Kδ”, “ATP, 3.4 nM PI3Kδ. Reactions were incubated for 120 min and terminated by the addition of 40 μL SPA beads suspended in quench buffer: 163 mM potassium phosphate pH 7.8, 20% glycerol, 25 mM EDTA.” left out

Sequence of PI3Kγ (p110γ) Recombinant Human Protein (P48736 whole entry): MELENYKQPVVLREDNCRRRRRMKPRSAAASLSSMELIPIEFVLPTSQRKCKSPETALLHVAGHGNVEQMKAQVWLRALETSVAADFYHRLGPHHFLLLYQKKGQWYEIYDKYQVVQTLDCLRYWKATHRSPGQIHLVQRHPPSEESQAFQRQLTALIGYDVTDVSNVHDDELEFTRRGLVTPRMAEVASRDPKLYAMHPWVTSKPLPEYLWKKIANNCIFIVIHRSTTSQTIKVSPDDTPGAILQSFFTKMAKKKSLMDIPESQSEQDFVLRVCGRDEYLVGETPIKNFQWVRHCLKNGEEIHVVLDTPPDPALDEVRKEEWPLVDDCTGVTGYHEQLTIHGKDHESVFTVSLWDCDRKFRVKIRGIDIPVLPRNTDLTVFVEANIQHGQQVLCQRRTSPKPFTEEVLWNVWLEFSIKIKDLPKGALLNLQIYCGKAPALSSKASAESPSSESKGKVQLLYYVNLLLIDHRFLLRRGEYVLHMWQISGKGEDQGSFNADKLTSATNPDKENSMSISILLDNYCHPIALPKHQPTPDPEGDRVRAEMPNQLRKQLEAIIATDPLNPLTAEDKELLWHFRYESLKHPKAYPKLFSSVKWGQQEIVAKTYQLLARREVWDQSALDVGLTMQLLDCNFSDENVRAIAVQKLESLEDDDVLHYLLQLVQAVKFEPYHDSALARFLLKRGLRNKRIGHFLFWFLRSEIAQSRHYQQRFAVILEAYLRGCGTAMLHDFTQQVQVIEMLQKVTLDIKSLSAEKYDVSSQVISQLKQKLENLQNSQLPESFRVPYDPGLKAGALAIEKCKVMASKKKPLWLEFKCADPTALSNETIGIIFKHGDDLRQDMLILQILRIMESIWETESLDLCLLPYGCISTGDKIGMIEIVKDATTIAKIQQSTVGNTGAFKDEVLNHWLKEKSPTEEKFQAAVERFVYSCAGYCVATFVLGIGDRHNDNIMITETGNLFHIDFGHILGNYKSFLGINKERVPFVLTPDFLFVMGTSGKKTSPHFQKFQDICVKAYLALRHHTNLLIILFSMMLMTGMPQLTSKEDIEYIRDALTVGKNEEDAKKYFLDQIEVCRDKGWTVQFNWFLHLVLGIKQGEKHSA
Sequence of PI3Kδ (p110δ/p85α) Recombinant Human Protein (O00329 whole entry): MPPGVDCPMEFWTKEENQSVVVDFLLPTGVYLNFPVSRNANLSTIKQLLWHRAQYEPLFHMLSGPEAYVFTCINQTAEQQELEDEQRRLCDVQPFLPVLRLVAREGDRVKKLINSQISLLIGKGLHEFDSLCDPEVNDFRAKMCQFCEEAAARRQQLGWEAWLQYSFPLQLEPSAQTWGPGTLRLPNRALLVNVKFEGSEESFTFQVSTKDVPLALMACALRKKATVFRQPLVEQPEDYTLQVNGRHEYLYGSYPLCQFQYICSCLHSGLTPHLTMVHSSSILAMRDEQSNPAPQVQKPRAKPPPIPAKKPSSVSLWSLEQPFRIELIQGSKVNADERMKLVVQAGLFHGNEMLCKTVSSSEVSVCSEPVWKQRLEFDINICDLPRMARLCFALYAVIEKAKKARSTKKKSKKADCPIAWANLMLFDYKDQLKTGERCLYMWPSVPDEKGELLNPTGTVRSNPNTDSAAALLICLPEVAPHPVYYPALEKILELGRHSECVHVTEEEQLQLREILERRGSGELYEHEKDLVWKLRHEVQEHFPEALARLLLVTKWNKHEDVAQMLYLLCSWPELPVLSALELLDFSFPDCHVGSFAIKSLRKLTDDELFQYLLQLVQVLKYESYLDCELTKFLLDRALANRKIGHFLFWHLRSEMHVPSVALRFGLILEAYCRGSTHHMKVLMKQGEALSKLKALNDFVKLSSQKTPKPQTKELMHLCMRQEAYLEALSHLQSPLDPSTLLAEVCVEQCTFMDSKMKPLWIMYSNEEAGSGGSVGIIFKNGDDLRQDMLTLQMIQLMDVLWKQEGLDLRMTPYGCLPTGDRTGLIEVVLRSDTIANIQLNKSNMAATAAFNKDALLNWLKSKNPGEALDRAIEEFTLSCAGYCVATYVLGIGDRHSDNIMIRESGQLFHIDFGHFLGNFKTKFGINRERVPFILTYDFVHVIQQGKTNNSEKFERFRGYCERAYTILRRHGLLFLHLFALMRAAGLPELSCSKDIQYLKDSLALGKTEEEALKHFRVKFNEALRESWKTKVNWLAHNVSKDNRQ
Sequence of PI3Kδ (p110δ/p85α) Recombinant Human Protein (P27986 whole entry partner): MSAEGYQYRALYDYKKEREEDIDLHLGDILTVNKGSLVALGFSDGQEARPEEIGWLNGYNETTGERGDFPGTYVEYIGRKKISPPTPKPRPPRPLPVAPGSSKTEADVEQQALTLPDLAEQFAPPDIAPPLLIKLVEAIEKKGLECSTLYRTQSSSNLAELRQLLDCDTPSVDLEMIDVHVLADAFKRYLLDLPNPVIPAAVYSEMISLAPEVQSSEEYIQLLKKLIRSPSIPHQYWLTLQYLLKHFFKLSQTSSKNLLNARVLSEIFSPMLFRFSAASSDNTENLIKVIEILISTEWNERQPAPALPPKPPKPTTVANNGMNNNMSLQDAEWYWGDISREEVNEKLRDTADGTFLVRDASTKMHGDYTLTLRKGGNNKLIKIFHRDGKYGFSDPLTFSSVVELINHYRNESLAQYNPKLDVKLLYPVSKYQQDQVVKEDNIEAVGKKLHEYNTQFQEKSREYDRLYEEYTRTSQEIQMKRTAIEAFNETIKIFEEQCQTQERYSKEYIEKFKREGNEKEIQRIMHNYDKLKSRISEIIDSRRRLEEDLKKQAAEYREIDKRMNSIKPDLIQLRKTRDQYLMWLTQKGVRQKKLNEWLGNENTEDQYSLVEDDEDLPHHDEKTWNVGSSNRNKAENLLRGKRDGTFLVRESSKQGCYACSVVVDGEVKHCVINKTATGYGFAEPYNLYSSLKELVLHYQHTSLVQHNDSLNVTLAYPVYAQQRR

SMILES | IC50 [1] | IC50 [2]
Cc1ccc(S(C)(=O)=O)cc1-c1cnc2c(N)nc(C(=O)NCC3CCC(C(F)(F)F)CC3)cn12 (mixture of isomers) [Example 456, 8-amino-3-(2-methyl-5-(methylsulfonyl)phenyl)-N-((4-(trifluoromethyl)cyclohexyl)methyl)imidazo[1,2-a]pyrazine-6-carboxamide trifluoroacetate salt (1:1 cis/trans isomers)] | 100 to 500 nM | 100 to 500 nM
Cc1ccc(S(C)(=O)=O)cc1-c1cnc2c(N)nc(C(=O)NC3CCCN(CCO)C3)cn12 (racemic) [Example 460, 8-Amino-N-(1-(2-hydroxyethyl)piperidin-3-yl)-3-(2-methyl-5-(methylsulfonyl)phenyl)imidazo[1,2-a]pyrazine-6-carboxamide trifluoroacetate salt (racemic)] | > 2000 nM | 500 to 2000 nM
Cc1ccc(S(=O)(=O)[C@@H]2CCC[C@H](O)C2)cc1-c1cnc2c(N)ncnn12 (relative stereo) [Example 501, cis-3-((3-(4-Aminoimidazo[2,1-f][1,2,4]triazin-7-yl)-4-methylphenyl)sulfonyl)cyclohexan-1-ol] | 500 to 2000 nM | < 100 nM
Cc1ccc(S(=O)(=O)NCC2(C)COC2)cc1-c1cnc2c(N)cccn12 [Example 3, 3-(8-Aminoimidazo[1,2-a]pyridin-3-yl)-4-methyl-N-[(3-methyloxetan-3-yl)methyl]benzenesulfonamide trifluoroacetate] | > 2000 nM | 100 to 500 nM
CCS(=O)(=O)Nc1cc(-c2cnc3c(N)cc(Cl)cn23)c[nH]c1=O [Example 6, N-[5-(8-Amino-6-chloroimidazo[1,2-a]pyridin-3-yl)-2-oxo-1,2-dihydropyridin-3-yl]ethanesulfonamide trifluoroacetate] | > 2000 nM | 500 to 2000 nM
CCOc1ncc(-c2cnc3c(N)cc(Cl)cn23)cc1NS(=O)(=O)CC [Example 7, N-[5-(8-Amino-6-chloroimidazo[1,2-a]pyridin-3-yl)-2-ethoxypyridin-3-yl]ethanesulfonamide bis(trifluoroacetate)] | 500 to 2000 nM | 100 to 500 nM
Cc1ccc(S(C)(=O)=O)cc1-c1cnc2c(N)nc(-c3ccccc3F)cn12 [Example 40, 6-(2-Fluorophenyl)-3-[2-methyl-5-(methylsulfonyl)phenyl]imidazo[1,2-a]pyrazin-8-amine trifluoroacetate] | 100 to 500 nM | < 100 nM
COc1ccc(-c2cnc3c(N)nccn23)cc1S(=O)(=O)N[C@H]1CC[C@H](O)CC1 [Example 43, 5-(8-Aminoimidazo[1,2-a]pyrazin-3-yl)-N-(trans-4-hydroxycyclohexyl)-2-methoxybenzenesulfonamide] | < 100 nM | 100 to 500 nM
Cc1cc(-c2cnc3c(N)nccn23)cc(S(=O)(=O)N[C@H]2CC[C@H](O)CC2)c1 [Example 44, 3-(8-Aminoimidazo[1,2-a]pyrazin-3-yl)-N-(trans-4-hydroxycyclohexyl)-5-methylbenzenesulfonamide] | > 2000 nM | 500 to 2000 nM
Nc1nccn2c(-c3ccc(F)c(S(=O)(=O)N[C@H]4CC[C@H](O)CC4)c3)cnc12 [Example 45, 5-(8-Aminoimidazo[1,2-a]pyrazin-3-yl)-2-fluoro-N-(trans-4-hydroxycyclohexyl)benzenesulfonamide] | 500 to 2000 nM | < 100 nM
Nc1nccn2c(-c3ccc(Cl)c(S(=O)(=O)N[C@H]4CC[C@H](O)CC4)c3)cnc12 [Example 46, 5-(8-Aminoimidazo[1,2-a]pyrazin-3-yl)-2-chloro-N-(trans-4-hydroxycyclohexyl)benzenesulfonamide] | 100 to 500 nM | < 100 nM
Cc1ccc(S(=O)(=O)N2CCC(O)CC2)cc1-c1cnc2c(N)ncnn12 [Example 66, 1-{[3-(4-Aminoimidazo[2,1-f][1,2,4]triazin-7-yl)-4-methylphenyl]sulfonyl}piperidin-4-ol] | > 2000 nM | 100 to 500 nM
Cc1ccc(S(=O)(=O)NCC2CCOC2)cc1-c1cnc2c(N)ncnn12 (centres unmarked) [Example 67, 3-(4-Aminoimidazo[2,1-f][1,2,4]triazin-7-yl)-4-methyl-N-(tetrahydrofuran-3-ylmethyl)benzenesulfonamide] | > 2000 nM | 100 to 500 nM
Cc1ccc(S(=O)(=O)NC23CC(CO)(C2)C3)cc1-c1cnc2c(N)ncnn12 [Example 105, 3-(4-Aminoimidazo[1,2-f][1,2,4]triazin-7-yl)-N-(3-(hydroxymethyl)bicyclo[1,1,1]pentan-1-yl)-4-methylbenzenesulfonamide trifluoroacetate salt] | 500 to 2000 nM | < 100 nM
Cc1ccc(S(=O)(=O)N2CCC(O)C3(CC3)C2)cc1-c1cnc2c(N)ncnn12 (centres unmarked) [Example 119, 5-{[3-(4-aminoimidazo[2,1-f][1,2,4]triazin-7-yl)-4-methylphenyl]sulfonyl}-5-azaspiro[2.5]octan-8-ol] | > 2000 nM | 100 to 500 nM
Cc1ccc(S(=O)(=O)N2C3CCC2CC(O)C3)cc1-c1cnc2c(N)ncnn12 (centres unmarked) [Example 120, 8-{[3-(4-aminoimidazo[2,1-f][1,2,4]triazin-7-yl)-4-methylphenyl]sulfonyl}-8-azabicyclo[3.2.1]octan-3-ol] | 100 to 500 nM | < 100 nM
Cc1ccc(S(=O)(=O)N2CC(N3CCOCC3)C2)cc1-c1cnc2c(N)ncnn12 [Example 146, 7-(2-methyl-5-((3-morpholinoazetidin-1-yl)sulfonyl)phenyl)imidazo[2,1-f][1,2,4]triazin-4-amine, 2TFA] | 100 to 500 nM | < 100 nM
Cc1ccc(S(=O)(=O)N(C)C2CC2)cc1-c1cnc2c(N)ncnn12 [Example 148, 3-(4-aminoimidazo[2,1-f][1,2,4]triazin-7-yl)-N-cyclopropyl-N,4-dimethylbenzenesulfonamide] | 500 to 2000 nM | 100 to 500 nM
Cc1ccc(S(=O)(=O)N2CCCCC23CC3)cc1-c1cnc2c(N)ncnn12 [Example 149, 7-(5-((4-azaspiro[2.5]octan-4-yl)sulfonyl)-2-methylphenyl)imidazo[2,1-f][1,2,4]triazin-4-amine] | 100 to 500 nM | < 100 nM
Cc1ccc(S(=O)(=O)N2CC[C@@H](C#N)C2)cc1-c1cnc2c(N)ncnn12 [Example 150, (R)-1-((3-(4-aminoimidazo[2,1-f][1,2,4]triazin-7-yl)-4-methylphenyl)sulfonyl)pyrrolidine-3-carbonitrile] | 500 to 2000 nM | < 100 nM
CO[C@@H]1CN(S(=O)(=O)c2ccc(C)c(-c3cnc4c(N)ncnn34)c2)C[C@H]1F [Example 151, 7-(5-(((3R,4R)-3-fluoro-4-methoxypyrrolidin-1-yl)sulfonyl)-2-methylphenyl)imidazo[2,1-f][1,2,4]triazin-4-amine] | 100 to 500 nM | < 100 nM
Cc1ccc(S(=O)(=O)N2CCC[C@@H]2CO)cc1-c1cnc2c(N)ncnn12 [Example 152] | 500 to 2000 nM | < 100 nM
Cc1ccc(S(=O)(=O)N2CC(C3COC3)C2)cc1-c1cnc2c(N)ncnn12 [Example 153, 7-(2-methyl-5-((3-(oxetan-3-yl)azetidin-1-yl)sulfonyl)phenyl)imidazo[2,1-f][1,2,4]triazin-4-amine] | 500 to 2000 nM | < 100 nM
Cc1ccc(S(=O)(=O)N(C)CCC#N)cc1-c1cnc2c(N)ncnn12 [Example 154, 3-(4-aminoimidazo[2,1-f][1,2,4]triazin-7-yl)-N-(2-cyanoethyl)-N,4-dimethylbenzenesulfonamide] | > 2000 nM | < 100 nM
Cc1ccc(S(=O)(=O)N2CC(C)OCC2(C)C)cc1-c1cnc2c(N)ncnn12 (centres unmarked) [Example 158, 7-(2-methyl-5-((2,5,5-trimethylmorpholino)sulfonyl)phenyl)imidazo[2,1-f][1,2,4]triazin-4-amine] | 500 to 2000 nM | < 100 nM
